Data taken from PubChem BioAssay AID248 (DTP/NCI, 2004).
“And” between values parts separate entries of the source, which are not always exact repeats. Equal values may be shown once. Inconclusive results and toxic doses are left out. Rule as the data show it: active = T/C of 150% or more; inactive = T/C below 125%.

Test system: L1210 leukemia ip in BDF1 mice, survival T/C
Experiment: NCI In Vivo Anticancer Drug Screen. Data for tumor model L1210 Leukemia (intraperitoneal) in B6D2F1 (BDF1) mice
Conditions: endpoint: mean survival time, higher = longer survival
How it was run: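 In this screen, tumor-bearing mice given compound are compared to those given vehicle, and their survival values are reported as a treated-to-control quotient.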

[1] = dose: 25.0 mg/kg/injection, schedule: Q04DX003 (ip), vehicle: saline
[2] = dose: 50.0 mg/kg/injection, schedule: Q04DX003 (ip), vehicle: saline
[3] = dose: 100.0 mg/kg/injection, schedule: Q04DX003 (ip), vehicle: Klucel (hydroxypropylcellulose) (HPC)
[4] = dose: 200.0 mg/kg/injection, schedule: Q04DX003 (ip), vehicle: Klucel (hydroxypropylcellulose) (HPC)
[5] = dose: 400.0 mg/kg/injection, schedule: Q04DX003 (ip), vehicle: Klucel (hydroxypropylcellulose) (HPC)
[6] = dose: 100.0 mg/kg/injection, schedule: Q01DX009 (ip), vehicle: saline with Tween-80
[7] = dose: 100.0 mg/kg/injection, schedule: Q04DX003 (ip), vehicle: saline with Tween-80
[8] = dose: 200.0 mg/kg/injection, schedule: Q01DX009 (ip), vehicle: saline with Tween-80
[9] = dose: 200.0 mg/kg/injection, schedule: Q04DX003 (ip), vehicle: saline with Tween-80
[10] = dose: 400.0 mg/kg/injection, schedule: Q01DX009 (ip), vehicle: saline with Tween-80
[11] = dose: 400.0 mg/kg/injection, schedule: Q04DX003 (ip), vehicle: saline with Tween-80
[12] = dose: 12.5 mg/kg/injection, schedule: Q01DX009 (ip), vehicle: saline
[13] = dose: 25.0 mg/kg/injection, schedule: Q01DX009 (ip), vehicle: saline

Measured: T/C

Nc1ccc(CCC(=O)Nc2ccc(S(=O)(=O)F)cc2)c(Cl)c1
inactive: dose: 100.0 mg/kg/injection, schedule: Q01DX001 (ip), vehicle: saline with Tween-80 101 % of control | dose: 200.0 mg/kg/injection, schedule: Q01DX001 (ip), vehicle: saline with Tween-80 93 % of control | dose: 400.0 mg/kg/injection, schedule: Q01DX001 (ip), vehicle: saline with Tween-80 88 % of control

O=C(Nc1ccccc1)C(=O)c1ccccc1
inactive: dose: 100.0 mg/kg/injection, schedule: Q01DX001 (ip), vehicle: Klucel (hydroxypropylcellulose) (HPC) 98 % of control | dose: 200.0 mg/kg/injection, schedule: Q01DX001 (ip), vehicle: Klucel (hydroxypropylcellulose) (HPC) 93 % of control | dose: 400.0 mg/kg/injection, schedule: Q01DX001 (ip), vehicle: Klucel (hydroxypropylcellulose) (HPC) 106 % of control

COP(=S)(OC)N(C)C
inactive: dose: 75.0 mg/kg/injection, schedule: Q01DX001 (ip), vehicle: saline 101 % of control | dose: 150.0 mg/kg/injection, schedule: Q01DX001 (ip), vehicle: saline 96 % of control

CC1CC(C)(C)NCCNC(C)CC(C)(C)NCCN1 (configuration not stated)
inactive: dose: 12.5 mg/kg/injection, schedule: Q04DX002 (ip), vehicle: Klucel (hydroxypropylcellulose) (HPC) 97 % of control | dose: 25.0 mg/kg/injection, schedule: Q04DX002 (ip), vehicle: Klucel (hydroxypropylcellulose) (HPC) 94 % of control | dose: 50.0 mg/kg/injection, schedule: Q04DX002 (ip), vehicle: Klucel (hydroxypropylcellulose) (HPC) 94 % of control

CC(=O)c1cccc(NC(=O)c2ccco2)c1
inactive: dose: 50.0 mg/kg/injection, schedule: Q01DX009 (ip), vehicle: Klucel (hydroxypropylcellulose) (HPC) 96 % of control | dose: 100.0 mg/kg/injection, schedule: Q01DX009 (ip), vehicle: Klucel (hydroxypropylcellulose) (HPC) 93 % of control | dose: 200.0 mg/kg/injection, schedule: Q01DX009 (ip), vehicle: Klucel (hydroxypropylcellulose) (HPC) 93 % of control

O=c1[nH]cnc2nccnc12
inactive: [1] 100 % of control | [2] 101 % of control | dose: 100.0 mg/kg/injection, schedule: Q04DX003 (ip), vehicle: saline 88 % of control | dose: 200.0 mg/kg/injection, schedule: Q04DX003 (ip), vehicle: saline 90 % of control

NC(N)=N/N=C(\c1ccc(Cl)cc1)C1CC1
inactive: dose: 15.0 mg/kg/injection, schedule: Q01DX Z (ip), vehicle: methylcellulose (MC) 101 % of control | dose: 30.0 mg/kg/injection, schedule: Q01DX Z (ip), vehicle: methylcellulose (MC) 95 % of control | dose: 30.0 mg/kg/injection, schedule: Q01DX Z (oral), vehicle: methylcellulose (MC) 92 % of control | dose: 60.0 mg/kg/injection, schedule: Q01DX Z (ip), vehicle: methylcellulose (MC) 98 % of control | dose: 60.0 mg/kg/injection, schedule: Q01DX Z (oral), vehicle: methylcellulose (MC) 93 % of control | dose: 240.0 mg/kg/injection, schedule: Q01DX Z (oral), vehicle: methylcellulose (MC) 95 % of control | dose: 375.0 mg/kg/injection, schedule: Q01DX Z (oral), vehicle: methylcellulose (MC) 92 % of control | dose: 500.0 mg/kg/injection, schedule: Q01DX Z (oral), vehicle: methylcellulose (MC) 88 % of control

CC(C)CC(NS(=O)(=O)Cc1ccccc1)C(=O)NN (configuration not stated)
inactive: dose: 100.0 mg/kg/injection, schedule: Q01DX001 (ip), vehicle: other 98 % of control | dose: 200.0 mg/kg/injection, schedule: Q01DX001 (ip), vehicle: other 96 % of control | dose: 400.0 mg/kg/injection, schedule: Q01DX001 (ip), vehicle: other 110 % of control

CN(C)C(=S)SCNC(=S)NCSC(=S)N(C)C
inactive: [3] 106 % of control | [4] 96 % of control | [5] 98 % of control

COc1ccc(CC(=O)Cc2ccc(OC)c(OC)c2)cc1OC
inactive: [6] 93 % of control | [7] 100 % of control | [8] 98 % of control | [9] 108 % of control | [10] 102 % of control | [11] 100 % of control

O=C(NO)c1ccccc1.O=C(NO)c1ccccc1.O=C(NO)c1ccccc1.[Fe]
inactive: dose: 100.0 mg/kg/injection, schedule: Q04DX003 (ip), vehicle: DMSO 93 % of control

O=C(CC(c1ccccc1)c1ccccc1)NS(=O)(=O)c1ccccc1
inactive: [3] 94 % of control | [4] 97 % of control | [5] 97 % of control

CC(C)(C)C#C[P+](C#CC(C)(C)C)(Cc1ccccc1)c1ccccc1
inactive: [12] 99 % of control | dose: 12.5 mg/kg/injection, schedule: Q04DX003 (ip), vehicle: saline 98 % of control | [13] 94 % of control | [1] 106 % of control | [2] 117 % of control

CC(C)CN1C(c2ccccc2)=CN(Cc2ccccc2)C=C1c1ccccc1
inactive: dose: 100.0 mg/kg/injection, schedule: Q04DX002 (ip), vehicle: Klucel (hydroxypropylcellulose) (HPC) 100 % of control | dose: 200.0 mg/kg/injection, schedule: Q04DX002 (ip), vehicle: Klucel (hydroxypropylcellulose) (HPC) 120 % of control | dose: 400.0 mg/kg/injection, schedule: Q04DX002 (ip), vehicle: Klucel (hydroxypropylcellulose) (HPC) 113 % of control

COC1=CC23CCNC(Cc4ccc(OC)c(O)c42)C3=CC1 (configuration not stated)
inactive: dose: 10.0 mg/kg/injection, schedule: Q01DX001 (ip), vehicle: saline 101 % of control

CCCCCCCCCCCCCCCC(=O)Nc1c(C)cccc1Cl
inactive: dose: 100.0 mg/kg/injection, schedule: Q04DX002 (ip), vehicle: saline with Tween-80 96 % of control | dose: 200.0 mg/kg/injection, schedule: Q04DX002 (ip), vehicle: saline with Tween-80 88 % of control | dose: 400.0 mg/kg/injection, schedule: Q04DX002 (ip), vehicle: saline with Tween-80 93 % of control

CCCCCCN(CCCCCC)CC(=O)NCCCN1CCN(CCCNC(=O)CN(CCCCCC)CCCCCC)CC1
inactive: dose: 12.5 mg/kg/injection, schedule: Q01DX001 (ip), vehicle: carboxymethylcellulose (CMC) 105 % of control | dose: 22.0 mg/kg/injection, schedule: Q01DX001 (ip), vehicle: carboxymethylcellulose (CMC) 98 % of control and 104 % of control | dose: 25.0 mg/kg/injection, schedule: Q01DX001 (ip), vehicle: carboxymethylcellulose (CMC) 100 % of control | dose: 33.0 mg/kg/injection, schedule: Q01DX001 (ip), vehicle: carboxymethylcellulose (CMC) 95 % of control and 100 % of control | dose: 50.0 mg/kg/injection, schedule: Q01DX001 (ip), vehicle: carboxymethylcellulose (CMC) 98 % of control and 101 % of control

COC(=O)c1ccccc1NC(=O)CCl
inactive: [7] 99 % of control | [9] 91 % of control

COC1Nc2cc3ccccc3cc2-c2ccccc21 (configuration not stated)
inactive: dose: 100.0 mg/kg/injection, schedule: Q01DX001 (ip), vehicle: carboxymethylcellulose (CMC) 97 % of control | dose: 200.0 mg/kg/injection, schedule: Q01DX001 (ip), vehicle: carboxymethylcellulose (CMC) 97 % of control

OCC1OC([Se][Se]C2OC(CO)C(O)C(O)C2O)C(O)C(O)C1O (configuration not stated)
inactive: dose: 6.25 mg/kg/injection, schedule: Q01DX009 (ip), vehicle: saline 99 % of control | [12] 100 % of control | [13] 100 % of control | dose: 100.0 mg/kg/injection, schedule: Q04DX002 (ip), vehicle: saline 105 % of control

C#CCNC(=O)NCCCl
inactive: [6] 97 % of control | [7] 101 % of control | [8] 99 % of control | [9] 104 % of control | [10] 97 % of control | [11] 101 % of control

CC(=O)c1ccc(Br)cc1OCC(=O)O
inactive: dose: 100.0 mg/kg/injection, schedule: Q01DX009 (ip), vehicle: gum acacia 102 % of control | dose: 100.0 mg/kg/injection, schedule: Q04DX003 (ip), vehicle: gum acacia 97 % of control | dose: 200.0 mg/kg/injection, schedule: Q01DX009 (ip), vehicle: gum acacia 103 % of control | dose: 200.0 mg/kg/injection, schedule: Q04DX003 (ip), vehicle: gum acacia 92 % of control | dose: 400.0 mg/kg/injection, schedule: Q04DX003 (ip), vehicle: gum acacia 94 % of control

COc1cccc2c(=O)c(COC(C)=O)c(C)[nH]c12
inactive: dose: 12.5 mg/kg/injection, schedule: Q01DX009 (ip), vehicle: saline with Tween-80 100 % of control | dose: 25.0 mg/kg/injection, schedule: Q01DX009 (ip), vehicle: saline with Tween-80 100 % of control | dose: 50.0 mg/kg/injection, schedule: Q01DX009 (ip), vehicle: saline with Tween-80 98 % of control | [6] 106 % of control
